Where two headings read alike, the source gives them in different places.
Legend:
MEK1/2 = settings: second-generation MEK1/2 inhibitor, reference [17]; cited from earlier work
colon cancer = settings: oral treatment, mouse models, reference [18]; cited from earlier work
MEK1 = target: T1, MEK1 (Homo sapiens, UniProt Q02750); assay: MEK1 activation kinase assay (Assay 2, HTRF; Cot1 phosphorylates GST-MEK1); assay type: biochemical
T1 construct: purchased Millipore 14-420 (GST-MEK1); 14-703 (Cot1); host or cells: Cot1: insect cells (SF21)
Method: MEK1 Activation Kinase Assay
The kinase Cot1 activates MEK1 by phosphorylating its activation loop. The inhibitory activity of compounds of the present invention on this activation of MEK1 was quantified employing the HTRF assay described in the following paragraphs.
As substrate for the kinase reaction the unactive C-terminally His6-tagged GST-MEK1 fusion protein (Millipore cat. no 14-420) was used.
Then the kinase reaction was started by the addition of 2 μl of a solution of Cot1 in assay buffer and the resulting mixture was incubated for a reaction time of 20 min at 22° C. The concentration of Cot1 in the assay was adjusted depending of the activity of the enzyme lot and was chosen appropriate to have the assay in the linear range, typical enzyme concentrations were in the range of about 2 ng/μl (final conc. in the 5 μl assay volume).
The resulting mixture was incubated 2 h at 22° C. to allow the binding of the phosphorylated GST-MEK1 to the anti-GST-XL665 and the Eu-cryptate labelled anti-phospho-MEK 1/2 antibody. Subsequently the amount of Ser217/Ser221-phosphorylated substrate was evaluated by measurement of the resonance energy transfer from the Eu-Cryptate-labelled anti-phospho-MEK antibody to the anti-GST-XL665.

[1] = mean values from 2 or more measurements, read-out: Assay 2 IC50 values (nanomolar) (MEK1 activation kinase assay) (values are mean values from 2 or more measurements)
[2] = representative example compounds, read-out: IC50 in MEK1 activation kinase assay

T1 sequence (Q02750 whole entry): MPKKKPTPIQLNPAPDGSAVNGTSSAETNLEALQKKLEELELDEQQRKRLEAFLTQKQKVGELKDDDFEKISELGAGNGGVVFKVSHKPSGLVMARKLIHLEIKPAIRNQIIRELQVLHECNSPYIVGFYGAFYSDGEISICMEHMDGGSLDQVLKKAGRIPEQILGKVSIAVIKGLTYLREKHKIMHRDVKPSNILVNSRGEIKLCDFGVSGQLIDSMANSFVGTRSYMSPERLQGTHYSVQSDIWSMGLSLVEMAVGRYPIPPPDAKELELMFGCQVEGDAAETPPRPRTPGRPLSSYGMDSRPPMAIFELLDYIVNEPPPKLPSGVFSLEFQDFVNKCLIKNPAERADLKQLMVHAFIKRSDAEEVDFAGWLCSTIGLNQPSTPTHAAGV

Structure (SMILES) | IC50 (MEK1/2) | inhibition of colon cancer growth (colon cancer) | IC50 (MEK1; [1]) | IC50 (MEK1; [2])
O=C(NOCC1CC1)c1ccc(F)c(F)c1Nc1ccc(I)cc1Cl [PD184352] | low nanomolar range | inhibit colon cancer growth in vivo | – | –
NC(=O)c1c(Nc2ccc(I)cc2F)cc(F)cc1Oc1cccc(NS(=O)(=O)N2CCOCC2)c1 [Example 5.24, 4-Fluoro-2-(2-fluoro-4-iodo-phenylamino)-6-[3-(morpholine-4-sulfonylamino)-phenoxy]-benzamide] | – | – | 25.9 nM | < 1000 nM
CC(C)(C)OC(=O)Nc1cccc(Oc2c(F)c(F)c(F)c(Nc3ccc(I)cc3F)c2C(N)=O)c1 [Example 2.19, {3-[2-Carbamoyl-4,5,6-trifluoro-3-(2-fluoro-4-iodo-phenylamino)-phenoxy]-phenyl}-carbamic acid tert-butyl ester] | – | – | 152 nM | < 1000 nM
CC(=O)Nc1cccc(Oc2cc(F)cc(Nc3ccc(I)cc3F)c2C(N)=O)c1 [Example 5.3, 2-(3-Acetylamino-phenoxy)-4-fluoro-6-(2-fluoro-4-iodo-phenylamino)-benzamide] | – | – | 28.1 nM | < 1000 nM
C#Cc1ccc(Nc2c(F)c(F)c(F)c(Oc3cccc(NS(=O)(=O)N(C)C)c3)c2C(N)=O)c(F)c1 [Example 7.4, 2-{3-[(dimethylsulfamoyl)amino]phenoxy}-6-[(4-ethynyl-2-fluorophenyl)amino]-3,4,5-trifluorobenzamide] | – | – | 12.3 nM | –
CCN(CC)S(=O)(=O)Nc1cccc(Oc2cc(F)cc(Nc3ccc(I)cc3F)c2C(N)=O)c1 [Example 5.38, 2-(3-diethylsulfamoyl-amino-phenoxy)-4-fluoro-6-(2-fluoro-4-iodo-phenylamino)-benzamide] | – | – | 55.3 nM | –
NC(=O)c1c(Nc2ccc(I)cc2F)cc(F)cc1Oc1cccc(CS(N)(=O)=O)c1 [Example 4.33, 4-Fluoro-2-(2-fluoro-4-iodo-phenylamino)-6-(3-sulfamoylmethyl-phenoxy)-benzamide] | – | – | 31.5 nM | < 1000 nM
CC(C)(O)C(O)CCOc1cc(F)cc(Nc2ccc(I)cc2F)c1C(N)=O (stereo not drawn) [Example 6.1, 2-(3,4-Dihydroxy-4-methyl-pentyloxy)-4-fluoro-6-(2-fluoro-4-iodo-phenylamino)-benzamide] | – | – | 19.7 nM | –
NC(=O)c1c(Nc2ccc(I)cc2F)cc(F)cc1Oc1cccc(NC(=O)C2CCC2)c1 [Example 5.80, 2-[3-(Cyclo-butanecarbonyl-amino)-phenoxy]-4-fluoro-6-(2-fluoro-4-iodo-phenylamino)-benzamide] | – | – | 137 nM | –
C#Cc1ccc(Nc2cc(F)cc(Oc3cccc(NS(=O)(=O)NCCC)c3)c2C(N)=O)c(F)c1 [Example 7.3, 2-[3-[[(propylamino)sulfonyl]amino]phenoxy]-4-fluoro-6-[(4-ethynyl-2-fluorophenyl)amino]-benzamide] | – | – | 46.7 nM | –
CN(C)S(=O)(=O)Nc1cccc(Oc2cc(F)cc(Nc3ccc(I)cc3F)c2C(=O)NCCO)c1 [Example 4.18, 2-[3-[[(dimethylamino)sulfonyl]amino]phenoxy]--4-fluoro-6-[(2-fluoro-4-iodophenyl)amino]-N-(2-hydroxy-ethyl)-benzamide] | – | – | 69.9 nM | –
COCCS(=O)(=O)Nc1cccc(Oc2cc(F)cc(Nc3ccc(I)cc3F)c2C(N)=O)c1 [Example 5.95, 4-fluoro-2-[(2-fluoro-4-iodophenyl)amino]-6-(3-{[(2-methoxyethyl)sulfonyl]amino}phenoxy)benzamide] | – | – | 25.1 nM | –
CN(C)S(=O)(=O)Nc1cccc(Oc2cc(F)cc(Nc3ccc(I)cc3F)c2C(=O)NCCCO)c1 [Example 4.19] | – | – | 80.1 nM | –
CC(=O)Nc1ccc(Oc2cc(F)cc(Nc3ccc(I)cc3F)c2C(N)=O)cc1 [Example 4.5, 2-(4-Acetylamino-phenoxy)-4-fluoro-6-(2-fluoro-4-iodo-phenylamino)-benzamide] | – | – | – | < 1000 nM
CN1CCC[C@H]1COc1cc(F)cc(Nc2ccc(I)cc2F)c1C(N)=O [Example 4.25, 4-Fluoro-2-(2-fluoro-4-iodo-phenylamino)-6-((S)-1-methyl-pyrrolidin-2-ylmethoxy)-benzamide] | – | – | 182 nM | < 1000 nM
NC(=O)c1c(Nc2ccc(I)cc2F)cc(F)cc1Oc1cccc(NC(=O)c2ccoc2)c1 [Example 5.77, Furan-3-carboxylic acid {3-[2-carbamoyl-5-fluoro-3-(2-fluoro-4-iodo-phenylamino)-phenoxy]-phenyl}-amide] | – | – | 127 nM | –
NC(=O)c1c(Nc2ccc(I)cc2F)cc(F)cc1Oc1cccc(C(=O)O)c1 [Example 10.7, 3-[2-Carbamoyl-5-fluoro-3-(2-fluoro-4-iodo-phenylamino)-phenoxy]-benzoic acid] | – | – | 33.2 nM | < 1000 nM
CN(C)S(=O)(=O)Nc1cccc(Oc2c(F)c(F)c(F)c(Nc3ccc(I)cc3F)c2C(N)=O)c1 [Example 2.20, 2-{3-[(dimethylsulfamoyl)amino]phenoxy}-3,4,5-trifluoro-6-[(2-fluoro-4-iodophenyl)amino]-benzamide] | – | – | 16.5 nM | < 1000 nM
NC(=O)c1c(Nc2ccc(I)cc2F)cc(F)cc1Oc1cccc(NS(N)(=O)=O)c1 [Example 5.7, 2-[3-[[(amino)sulfonyl]amino]phenoxy]-4-fluoro-6-[(2-fluoro-4-iodophenyl)amino]-benzamide] | – | – | 18.5 nM | –
